Experimental data: patent US6559158B1, “Use of methylnaltrexone and related compounds to treat chronic opioid use side affects” (UR Labs, Inc., priority 1997, dated 2003)

Test system: morphine-induced changes in oral-cecal transit time
Experiment: Example 4: morphine-induced delay of oral-cecal transit time in subjects given opioids non-chronically
Format: in vivo, human
Details: placebo plus 0.05 mg/kg morphine, 12 subjects, mean±SD; baseline 104.6±31.1; p<0.01
Description: Sessions were separated by at least 1 week. Each session lasted approximately 7 hours, and the subjects received one of three injections: (1) placebo plus placebo, (2) placebo plus 0.05 mg/kg morphine, or (3) 0.45 mg/kg methylnaltrexone plus 0.05 mg/kg morphine. Injection I was given at the first session, and the subjects were blinded to the medication. Injections 2 and 3 were given in a random order, and the subjects and observers were blinded to the medication. Injection assignments were prepared by random selection on a computer and were sealed in envelopes.
After completion of the above three injections, we asked six of the subjects, beginning with those who had completed the study last, to return for a fourth injection (0.45 mg/kg methylnaltrexone plus 0.1 mg/kg morphine). This was done to evaluate the effects of methylnaltrexone with a higher does of morphine.
Results of the hydrogen breath test after different injections were analyzed with the use of the Wilcoxon matched-pairs signed-rank test, with p<0.05 considered to be statistically significant.

CN1CC[C@]23c4c5ccc(O)c4O[C@H]2[C@@H](O)C=C[C@H]3[C@H]1C5.O=S(=O)(O)O [Morphine, morphine sulfate]
oral-cecal transit time: 163.3 ± 39.8 min
